“And” between values parts separate entries of the source, which are not always exact repeats. Equal values may be shown once. Read-outs that look alike come from different tables or passages of the source.
Experiment: Pharmacokinetics study of KPT-335 in cats (i.v. injection, p.o. capsules and tablets; UPLC-MS/MS, non-compartmental analysis)
Format: in vivo
Details: cats; for bioavailability / k el / Tmax / MRT last / AUC(0-inf) / AUC(0-t) / Cmax: both sexes, plasma, po; for k el: read-out: Lambda_z (converted); for Tmax: read-out: Tmax; for AUC(0-inf): read-out: AUCINF_obs; for AUC(0-t): read-out: AUClast; for Cmax: read-out: Cmax; for Plasma concentration: individual cats 1-6
Procedure: In this study, a parallel trial design was employed, 42 adult domestic cats (21 males and 21 females), aged 1 to 2 years and weighing 2.5 ± 0.25 kg. Cats were grouped by random number, with half male and female in each group, and all cats were determined to be systemically healthy during an initial screening visit 1 week prior to the experiment. They were acclimatized to the laboratory environment for 7 days before the study commenced. During this period, they were kept in solitary cages with free access to water. Cats in the fasting group were deprived of food for 12 h prior to and 2 h following drug administration, while those in the feeding group were fed twice a day. Food and water sources were consistent throughout the trail. During and at the end of the experiment, we systematically assessed the adverse reactions by recording parameters such as body weight, behavior, and coat gloss in all test cats both before and after the trial. These observations were conducted to evaluate whether any adverse reactions occurred. All procedures were reviewed and approved by the Institutional Animal Care and Use Committee of China Agricultural University (11305-23-E-002).
The UPLC-MS/MS system utilized a UPLC 1290 (Agilent) paired with a Phenomenex Kinetex C18 column (50 mm × 2.1 mm, 2.6 μm) for separation at a flow rate of 0.3 mL/min. The chromatographic mobile phase comprised water (A) and acetonitrile (B), both containing 0.1% formic acid. The gradient elution program was as follows: from 0.5 to 2.5 min, 10 to 95% B; from 2.5 to 4.5 min, 95% B; from 4.5 to 4.6 min, 95 to 10% B; and from 4.6 to 6.0 min, 10% B. The injection volume was 2 μL.
For mass spectrometry, an Agilent 6,475-LC-TQ equipped with an electrospray ion source was used. Multiple Reaction Monitoring (MRM) was selected to quantify KPT-335 in the positive ion mode. The ion transitions monitored were m/z 443.1 → 334.0 and 443.1 → 110.1 for KPT-335, and m/z 444.1 → 334.0 for the internal standard (IS). The cone voltage and collision energy were optimized for KPT-335 and the IS individually, set at 160 V and 25 eV, respectively. The optimized parameters for the instrument included an ion source temperature of 350°C, solvent removal temperature of 320°C, capillary voltage of 3.0 kV, and a solvent gas flow rate of 300 L/h.
The method was developed based on prior research conducted in the laboratory ([16]) and validated in accordance with international guidelines ([17]). The calibration concentration range for KPT-335 spanned from 0.5 to 100 ng/mL, with a lower limit of quantification (LLOQ) set at 0.5 ng/mL. The squared correlation coefficient (R^2) values exceeded 0.999, indicating high linearity.
For sample preparation, 100 μL of plasma was mixed with 10 μL of internal standard (IS) and 900 μL of acetonitrile, followed by vortexing for 2 min. The mixture was then centrifuged at 13,400 × g at 4°C for 10 min. The supernatant was filtered through a 0.22 μm organic membrane, and the resulting sample was analyzed using UPLC-MS/MS.
Cats were divided into seven groups, with six cats in each group. In the intravenous (i.v.) group (Group 1), cats received an injection of KPT-335 at a dosage of 1 mg/kg body weight (BW), administered via a bolus through a venous infusion needle. For the oral (p.o.) administration, cats were given capsules in a fasting state at doses of 0.2 mg/kg BW (Group 2), 1 mg/kg BW (Group 3), and 2 mg/kg BW (Group 4). Additionally, tablets were administered at 1 mg/kg BW (fasting, Group 5), 1 mg/kg BW (Group 6), and 2 mg/kg BW (Group 7) in a feeding state, followed by 3 mL of water delivered with a syringe.
For the p.o. administration, blood samples of 1.5 mL were collected via the brachial cephalic vein prior to administration and at 0.167, 0.333, 0.5, 0.75, 1, 1.5, 2, 4, 6, 8, 12, 24, 32, and 48 h post-administration. […]

[1] = 0.2 mg/kg, p.o., Capsule, Fasting, 0.2 mg/kg BW
[2] = 1 mg/kg, p.o., Capsule, Fasting, 1 mg/kg BW
[3] = 1 mg/kg, p.o., Tablet, Fasting, 1 mg/kg BW
[4] = 1 mg/kg, p.o., Tablet, Feeding, 1 mg/kg BW
[5] = 2 mg/kg, p.o., Capsule, Fasting, 2 mg/kg BW
[6] = 2 mg/kg, p.o., Tablet, Feeding, 2 mg/kg BW
[7] = capsule group, 0.2–2 mg/kg BW, reference 95% CI 0.90–1.10

O=C(/C=C\n1cnc(-c2cc(C(F)(F)F)cc(C(F)(F)F)c2)n1)NNc1ccccn1 [KPT-335] gave a bioavailability (0.2 mg/kg, p.o., Capsule, Fasting, 0.2 mg/kg BW, read-out: F (absolute bioavailability)) of 43.7%, a k el [1] of 3.33e-05 s⁻¹ and a Tmax [1] of 2.46 ± 2.75 h. For the same compound, the MRT last (1 mg/kg, Capsule, Fasting, 1 mg/kg BW) was 5.94 ± 1.05 h, the MRT last (1 mg/kg, Tablet, Fasting, 1 mg/kg BW) was 8.07 ± 1.73 h and the MRT last (1 mg/kg, Tablet, Feeding, 1 mg/kg BW) was 5.8 ± 1.61 h. It also gave a bioavailability (1 mg/kg, doses of 1 mg/kg BW, read-out: bioavailability of commercial tablets) of ~70%, an AUC(0-inf) [2] of 1420 ± 490 ng·h/mL and an AUC(0-t) [2] of 1420 ± 489 ng·h/mL. The Cmax [2] was 260 ± 75 ng/mL, the bioavailability (1 mg/kg, p.o., Capsule, Fasting, 1 mg/kg BW, read-out: F (absolute bioavailability)) was 44.7% and the k el [2] was 3.61e-05 s⁻¹. For the same compound, the Tmax [2] was 1.25 ± 0.39 h, the AUC(0-inf) [3] was 2430 ± 805 ng·h/mL and the AUC(0-t) [3] was 2410 ± 793 ng·h/mL. The Cmax [3] was 264 ± 129 ng/mL, the bioavailability (1 mg/kg, p.o., Tablet, Fasting, 1 mg/kg BW, read-out: F (absolute bioavailability)) was 75.9% and the k el [3] was 3.61e-05 s⁻¹. It also gave a Tmax [3] of 1.79 ± 1.17 h, an AUC(0-inf) [4] of 2270 ± 1260 ng·h/mL and an AUC(0-t) [4] of 2250 ± 1260 ng·h/mL. It also gave a Cmax [4] of 364 ± 145 ng/mL, a bioavailability (1 mg/kg, p.o., Tablet, Feeding, 1 mg/kg BW, read-out: F (absolute bioavailability)) of 71% and a k el [4] of 5e-05 s⁻¹. For the same compound, the Tmax [4] was 1.33 ± 0.41 h, the MRT last (2 mg/kg, Capsule, Fasting, 2 mg/kg BW) was 7.57 ± 1.94 h and the MRT last (2 mg/kg, Tablet, Feeding, 2 mg/kg BW) was 5.07 ± 0.69 h. For the same compound, the AUC(0-inf) [5] was 1850 ± 819 ng·h/mL, the AUC(0-t) [5] was 1840 ± 819 ng·h/mL and the Cmax [5] was 280 ± 175 ng/mL. For the same compound, the bioavailability (2 mg/kg, p.o., Capsule, Fasting, 2 mg/kg BW, read-out: F (absolute bioavailability)) was 28.9%, the k el [5] was 2.78e-05 s⁻¹ and the Tmax [5] was 1.58 ± 0.38 h. For the same compound, the AUC(0-inf) [6] was 3010 ± 715 ng·h/mL, the AUC(0-t) [6] was 3000 ± 711 ng·h/mL and the Cmax [6] was 559 ± 104 ng/mL. The bioavailability (2 mg/kg, p.o., Tablet, Feeding, 2 mg/kg BW, read-out: F (absolute bioavailability)) was 47.3%, the k el [6] was 5.83e-05 s⁻¹ and the Tmax [6] was 1.58 ± 0.2 h. The bioavailability (doses of 0.2–1 mg/kg BW, read-out: absolute bioavailability of capsules) was ~40%, the “dose linearity of pharmacokinetics” value (0.2–2 mg/kg BW dosage range) was “not to exhibit linear pharmacokinetics” and the “differences in pharmacokinetic parameters (Cmax and AUClast) between male and female cats” value (all groups) was “no statistically significant differences”. The “95% confidence interval of β, dose vs AUClast” value [7] was 0.63–1.11, the “95% confidence interval of β, dose vs Cmax” value [7] was 0.79–1.30 and the Plasma concentration (capsule p.o. 0.2 mg/kg BW, 1.5 h, 0.2 mg/kg, in ng/mL) was 15.20 and 20.46 and 38.22 and 14.31 and 22.72 and 26.72. For the same compound, the Plasma concentration (capsule p.o. 0.2 mg/kg BW, 2 h, 0.2 mg/kg, in ng/mL) was 13.60 and 18.16 and 33.66 and 26.22 and 20.79 and 22.21, the Plasma concentration (capsule p.o. 0.2 mg/kg BW, 4 h, 0.2 mg/kg) was 8.71 ng/mL and the Plasma concentration (capsule p.o. 0.2 mg/kg BW, 4 h, 0.2 mg/kg, in ng/mL) was 14.86 and 24.97 and 21.41 and 17.43 and 19.90. The Plasma concentration (capsule p.o. 0.2 mg/kg BW, 6 h, 0.2 mg/kg) was 6.19 ng/mL, the Plasma concentration (capsule p.o. 0.2 mg/kg BW, 6 h, 0.2 mg/kg, in ng/mL) was 20.30 and 16.23 and 18.02 and 15.34 and the Plasma concentration (capsule p.o. 0.2 mg/kg BW, 32 h, 0.2 mg/kg) was “BLOQ”. For the same compound, the Plasma concentration (capsule p.o. 0.2 mg/kg BW, 48 h) was “BLOQ”, the Plasma concentration (capsule p.o. 1 mg/kg BW, 48 h, 1 mg/kg) was “BLOQ” and the Plasma concentration (i.v. 1 mg/kg BW, 0.083 h, 1 mg/kg, in ng/mL) was 1162.77 and 332.48 and 914.52 and 894.65 and 827.83 and 934.74. The Plasma concentration (i.v. 1 mg/kg BW, 0.167 h, 1 mg/kg, in ng/mL) was 1202.33 and 331.12 and 812.32 and 891.11 and 808.43 and 825.26, the Plasma concentration (i.v. 1 mg/kg BW, 0.25 h, 1 mg/kg, in ng/mL) was 1058.99 and 320.82 and 769.91 and 863.19 and 750.36 and 838.90 and the Plasma concentration (i.v. 1 mg/kg BW, 0.33 h, 1 mg/kg, in ng/mL) was 996.69 and 292.96 and 774.12 and 852.52 and 723.28 and 760.14. For the same compound, the Plasma concentration (i.v. 1 mg/kg BW, 0.5 h, 1 mg/kg, in ng/mL) was 935.15 and 297.11 and 736.77 and 700.75 and 649.99 and 680.18 and the Plasma concentration (i.v. 1 mg/kg BW, 0.75 h, 1 mg/kg, in ng/mL) was 709.09 and 236.62 and 633.10 and 524.38 and 509.94 and 541.50.

Source: paper PMC12078333, “Pharmacokinetic evaluation and bioavailability of KPT-335 (Verdinexor) in cats” (Frontiers in Veterinary Science, 2025)
